The source of these data is paper PMC4768645, “Electronic Olfactory Sensor Based on A. mellifera Odorant‐Binding Protein 14 on a Reduced Graphene Oxide Field‐Effect Transistor” (Angewandte Chemie (International Ed. in English), 2015).

Each structure is given as a SMILES string. pKd: −log10 of the molar value. Like-named read-outs stand apart in the source and are kept apart here.

The test concerns the target T1, odorant-binding protein 14 (OBP14) (Apis mellifera, UniProt A0A8U0WQC3).
T1 construct: recombinant OBP14, cloning, expression and purification in supplement; immobilised via PBSE linker on reduced graphene oxide FET gate
T1 sequence (A0A8U0WQC3 17-135): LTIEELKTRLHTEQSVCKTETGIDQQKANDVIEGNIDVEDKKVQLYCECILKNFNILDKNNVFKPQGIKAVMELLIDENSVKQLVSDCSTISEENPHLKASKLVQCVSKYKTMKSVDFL
The test is described as follows: rGO-FET biosensor, real-time source-drain current, global Langmuir analysis. An excerpt: rGO-FET biosensor, real-time source-drain current, global Langmuir analysis on odorant-binding protein 14 (OBP14)

With `CC(C)=CCCC(C)=CC=O` [Citral], the pKd (read-out: Citral) was 3.10. In the case of `C=CCc1ccc(O)c(OC)c1` [Eugenol], where the note is “read-out: Eugenol”, the pKd is 4.40. As to `CC(C)=CCC/C(C)=C/CO` [Geraniol], the pKd (read-out: Geraniol) is 2.48.

For the compound `COc1cc(CC(=O)O)ccc1O` [Homovanillic acid], for the setting “read-out: Homovanillic acid”, the pKd is 5.40. Turning to `C=CCc1ccc(OC)c(OC)c1` [Methyl eugenol], under “read-out: Methyl eugenol”, the pKd was 2.85. For the compound `COC(=O)c1ccc(O)c(OC)c1` [Methyl vanillate], under “read-out: Methyl vanillate”, the pKd is 4.70.
